Measured values taken from patent publication US6040330A, “Pharmaceutical formulations of taxanes” (BioNumerik Pharmaceuticals, Inc., priority 1999, dated 2000).
Values after ≈ are worked out from the molar mass of the structure shown.

What was measured:
[1] = maximum solubility in NMP; format: physicochemical; settings: organic solvent or mixture; in NMP (N-methylpyrrolidin-2-one)
[2] = cited from earlier work

Row | solubility [1] [mg/mL] | SMILES | solubility in water (in words) [2] | water solubility ([2]; in water)
1 | ~40 (≈ 49.5 mM) | CC(=O)O[C@@]12CO[C@@H]1C[C@H](O)[C@@]1(C)C(=O)[C@H](O)C3=C(C)[C@@H](OC(=O)[C@H](O)[C@@H](NC(=O)OC(C)(C)C)c4ccccc4)C[C@@](O)([C@@H](OC(=O)c4ccccc4)[C@H]21)C3(C)C [Docetaxel] | very poorly soluble in water | –
2 | ~40 (≈ 46.8 mM) | CC(=O)O[C@H]1C(=O)[C@@]2(C)[C@H]([C@H](OC(=O)c3ccccc3)[C@]3(O)C[C@H](OC(=O)[C@H](O)[C@@H](NC(=O)c4ccccc4)c4ccccc4)C(C)=C1C3(C)C)[C@]1(OC(C)=O)CO[C@@H]1C[C@@H]2O [Paclitaxel] | very poorly water soluble | less than 10 μg/mL
